Measured values reported in patent US4547503A, “1-Cyclopropyl-6-fluoro-1,4-dihydro-4-oxo-7-[4-(oxo-alkyl)-1-piperazinyl ]quinoline-3-carboxylic acids and their derivatives, and antibacterial agents containing them” (Bayer Aktiengesellschaft, priority 1982, dated 1985).
≈ marks a conversion by molar mass, not a printed value.

Columns and labels:
Assay in all cases: MIC, agar dilution test; Denley multipoint inoculation procedure
Format in all cases: cell-based
E. coli A 261 = settings: Escherichia coli, A261, read-out: Minimum inhibitory concentration
From the text: (§1) In the table below, the minimum inhibitory concentrations (MIC) with a variety of bacteria for some of the compounds according to the invention are given. |Minimum inhibitory concentrations in mcg/ml in the agar dilution test;

E. coli Neumann = settings: Escherichia coli, read-out: Minimum inhibitory concentration
From the text: as §1

Klebsiella 57 USA = settings: read-out: Minimum inhibitory concentration
From the text: as §1

Klebsiella 6179 = settings: read-out: Minimum inhibitory concentration
From the text: as §1

Klebsiella 8085 = settings: read-out: Minimum inhibitory concentration
From the text: as §1

Proteus morganii 932 = settings: Morganella morganii, read-out: Minimum inhibitory concentration
From the text: as §1

Providencia 12052 = settings: read-out: Minimum inhibitory concentration
From the text: as §1

Staphylococcus 133 = settings: read-out: Minimum inhibitory concentration
From the text: as §1

Staphylococcus 1746 = settings: read-out: Minimum inhibitory concentration
From the text: as §1

Staphylococcus Fk 422 = settings: FK422, read-out: Minimum inhibitory concentration
From the text: as §1

Row | Compound | MIC (E. coli A 261) [µg/mL] | MIC (E. coli Neumann) [µg/mL] | MIC (Klebsiella 57 USA) [µg/mL] | MIC (Klebsiella 6179) [µg/mL] | MIC (Klebsiella 8085) [µg/mL] | MIC (Proteus morganii 932) [µg/mL] | MIC (Providencia 12052) [µg/mL] | MIC (Staphylococcus 133) [µg/mL] | MIC (Staphylococcus 1746) [µg/mL] | MIC (Staphylococcus Fk 422) [µg/mL]
1 | O=C(CN1CCN(c2cc3c(cc2F)c(=O)c(C(=O)O)cn3C2CC2)CC1)c1ccccc1 [Example 4] | ≤ 0.015 | 0.03 (≈ 0.0667 µM) | 0.06 (≈ 0.133 µM) | 0.5 (≈ 1.11 µM) | 0.125 (≈ 0.278 µM) | ≤ 0.015 | 128 (≈ 285 µM) | 2 (≈ 4.45 µM) | 1 (≈ 2.22 µM) | 2 (≈ 4.45 µM)
2 | O=C(CN1CCN(c2cc3c(cc2F)c(=O)c(C(=O)O)cn3C2CC2)CC1)c1ccc(O)cc1O [Example 5] | – | – | – | – | – | – | – | 0.25 (≈ 0.519 µM) | 0.25 (≈ 0.519 µM) | 0.25 (≈ 0.519 µM)
3 | O=C(CN1CCN(c2cc3c(cc2F)c(=O)c(C(=O)O)cn3C2CC2)CC1)c1ccc(Cl)cc1 [Example 9] | ≤ 0.015 | 0.03 (≈ 0.062 µM) | 0.5 (≈ 1.03 µM) | 1 (≈ 2.07 µM) | 0.125 (≈ 0.258 µM) | 0.03 (≈ 0.062 µM) | > 128 | 2 (≈ 4.13 µM) | 2 (≈ 4.13 µM) | 2 (≈ 4.13 µM)

More lines, in order of falling MIC (Staphylococcus 133), values ahead:

Row | MIC (E. coli A 261) [µg/mL] | MIC (E. coli Neumann) [µg/mL] | MIC (Klebsiella 57 USA) [µg/mL] | MIC (Klebsiella 6179) [µg/mL] | MIC (Klebsiella 8085) [µg/mL] | MIC (Proteus morganii 932) [µg/mL] | MIC (Providencia 12052) [µg/mL] | MIC (Staphylococcus 133) [µg/mL] | MIC (Staphylococcus 1746) [µg/mL] | MIC (Staphylococcus Fk 422) [µg/mL] | Compound
4 | ≤ 0.015 | 0.015 (≈ 0.0321 µM) | 0.03 (≈ 0.0642 µM) | 0.25 (≈ 0.535 µM) | 0.03 (≈ 0.0642 µM) | ≤ 0.015 | 64 (≈ 137 µM) | 1 (≈ 2.14 µM) | 1 (≈ 2.14 µM) | 1 (≈ 2.14 µM) | O=C(CN1CCN(c2cc3c(cc2F)c(=O)c(C(=O)O)cn3C2CC2)CC1)c1ccc(F)cc1 [Example 8]
5 | ≤ 0.015 | ≤ 0.015 | 0.06 (≈ 0.149 µM) | 0.25 (≈ 0.623 µM) | ≤ 0.015 | ≤ 0.015 | 32 (≈ 79.7 µM) | 0.5 (≈ 1.25 µM) | 0.5 (≈ 1.25 µM) | 0.5 (≈ 1.25 µM) | CC(=O)CCN1CCN(c2cc3c(cc2F)c(=O)c(C(=O)O)cn3C2CC2)CC1 [Example 12, 1-cyclopropyl-6-fluoro-1,4-dihydro-4-oxo-7-[4-(3-oxobutyl)-1-piperazinyl]quinoline-3-carboxylic acid]
6 | ≤ 0.015 | 0.06 (≈ 0.155 µM) | 1 (≈ 2.58 µM) | 2 (≈ 5.16 µM) | 0.06 (≈ 0.155 µM) | 0.06 (≈ 0.155 µM) | 128 (≈ 330 µM) | 0.25 (≈ 0.645 µM) | 0.25 (≈ 0.645 µM) | 0.25 (≈ 0.645 µM) | CC(=O)CN1CCN(c2cc3c(cc2F)c(=O)c(C(=O)O)cn3C2CC2)CC1 [Example 1, 1-cyclopropyl-6-fluoro-1,4-dihydro-4-oxo-7-[4-(2-oxopropyl)-1-piperazinyl]quinoline-3-carboxylic acid]
